Assay results reported in patent publication US6558664B1, “Chondrocyte cell-lines” (Cell Factors plc, priority 1994, dated 2003).

Tested on: chondrocyte cell-lines cloned from foetal femur
Assay: Von Kossa staining of calcium mineralisation in monolayer cultures of immortalised foetal femur chondrocyte cell-lines
Assay type: cell-based, human
Details: three chondrocyte clones incubated at the oncogene's non-permissive temperature (39° C.) in the presence of 1,25(OH)2D3; in its absence cells do not actively mineralise calcium; FIG. 5
Experimental: Foetal rib or femur tissue was taken at 7-9 weeks of gestation and placed in tissue culture flasks (Costar Limited, UK) in Eagle's minimum essential medium (Gibco Co Limited, UK) containing antibiotics and L-glutamine as well as 10% heat in activated foetal bovine serum. Cultured cells were maintained in a humidified atmosphere at 5% CO2 and 37° C. and medium changed at regular intervals (2-3 days). As is usual for primary cultures of resected tissue, cells within the sample move out from the body of the tissue, adhere to the flask surface, and replicate, potentially, to cover the whole surface of the tissue culture dish. After an initial period of, say, 2 weeks in primary culture. The cell population was transfected with a temperature sensitive mutant of the simium virus-40 derived large tumour (T) antigen using retroviral transduction.
In short, amphotropically packaged retroviral particles comprising this construct and a resistance marker to geneticin, G418 (kindly donated by Dr M O'Hare, Institute of Cancer Research, Royal Marsden Hospital, Lincoln's Inn, Sutton, Surrey, alternatively, essentially the same construct expressing a temperature sensitive mutant of the SV40-T oncogene was kindly donated by Professor Phil Gaillimore, CRC Laboratories, University of Birmingham, UK) was added to the medium together with polybrene (Sigma Chemicals) to a final concentration of 0.8 mg/ml. […]

## C=C1/C(=C\C=C2/CCC[C@]3(C)[C@@H]([C@H](C)CCCC(C)(C)O)CC[C@@H]23)C[C@@H](O)C[C@@H]1O [1,25(OH)2D3]
  calcium mineralisation (Von Kossa staining): each clone actively mineralises calcium
